Assay [1] concerns SCN electrical activity. Description: In vivo recording from SCN electrode implanted animals. The settings on record: intraperitoneal injection, 5 mg/kg.
Assay [2] deals with CRE::Luc reporter. Description: CRE-Luc luciferase assay in U2OS cells. Format: cell-based. The method, then: At 60-80% confluence and >90% viability, the U2OS cells in the T-75 flask were washed twice with 6 ml phosphate-buffered saline (PBS) and subsequently treated with 4 ml of TrypLE™ Express trypsin replacement solution for 10 minutes. A Greiner Bio-One 96 Well Plate (white, TC treated), was then seeded at 8000 cells per well. Following 24 hours, the cells were transfected at 50-70% confluency with CRE-luc Vector generated in-house with Viafect transfection reagent at 1:4 ratio (100 ng DNA/well) following manufacturers recommendations.
24 hours after transfection, the medium in the 96 well plate was changed to a serum-free medium with 1 mM luciferin. The cells were then incubated in serum starvation conditions for 6-8 hours, this was optimised to yield the greatest signal strength and lowest noise when assayed with forskolin control. Following the incubation period, the CRE-Luc U2OS cells were treated with the appropriate drug and their luminescence values were measured after 6 hours in the BMG FLUOstar OPTIMA Microplate Reader. […] Unless stated otherwise, forskolin was used as a positive control, and 1% DMSO was used as a negative control.

Assay [3] concerns C57Bl/6 mice. Description: Phase shifting of circadian activity by drug (running wheel). Format: in vivo. The method, then:
(§1) Animals were housed under a reversed 12:12 LD cycle (400 lux from white LED lamps) with food and water ad libitum. For phase-shifting studies, C57Bl/6 mice were maintained on running wheels in light tight chambers on a 12:12 LD cycle (400 lux from white LED lamps) and injected with drug at the indicated time points. The drugs were formulated in a vehicle consisting of 5% Koliphor-HS15 (Sigma-Aldrich, UK) 5% Cyclodextran (Sigma-Aldrich, UK) in 0.9% saline. This vehicle was warmed to 37° C. and the indicated drugs kept at a 100× stock in DMSO and mixed at the appropriate concentration to be administered at approximately 300 ul intraperitoneal injection (n=6 to 10). Where the time point of injection was in the dark, the procedure was conducted under dim red light. Where measuring phase-shifting, the mice were then placed in DD and allowed to free run for 14 days in DD, running wheel activity data was collected and analysed on Clocklab (Actimetrics, Wilmette, IL). For jet-lag studies, mice were maintained on running wheels in light tight chambers on a 12:12 LD cycle (400 lux from white LED lamps) and injected with drugs as above at ZT6 and the LD cycle was shifted 6 hours in advance. The onset of activity on each day was used to measure phase relative to the LD cycle.
Phase Shifting: C57Bl/6 male mice (80 days or older) were maintained on running wheels in light tight chambers on a 12:12 LD cycle (100 lux from white LED lamps) on stable entrainment, were released in complete darkness. At set times as indicated in the experiments, the animals received an intraperitoneal injection (300 ul) of drug constituted in sterile saline with 5% Cyclodextrin (Sigma-Aldrich) and 5% Koliphor (Sigma-Aldrich) and then allowed to free run in DD, running wheel activity data were collected and analysed on Clocklab (Actimetrics, Wilmette, IL).

Assay [4] concerns Per1/2. Description: Sleep deprivation, Per1/2 expression within the SCN. In kind it is in vivo. The settings on record: sleep deprivation decreases Per1/2 expression.
Assay [5] deals with Per2. Description: Per2 mRNA levels in U2OS cells by qPCR. Format: cell-based. On the procedure: Total RNA was extracted using the microRNeasy column method (Qiagen, Hilden, Germany). Quality and quantity of RNA were measured using an Agilent Bioanalyzer and a Nanodrop1000 (Thermo Fisher Scientific, Waltham, MA USA), respectively.
RNA samples were prepared as described for microarray hybridisation. cDNA was synthesized with a qScript cDNA synthesis kit (Quanta Biosciences, Gaithersburg, MD), and quantitative PCR (qPCR) was conducted with Sybr green I and an SDS7700 thermal cycler (Applied Biosystems, Foster City, CA). Relative quantification of transcript levels was done as described previously (Peirson et al., Nucleic Acids Res. 2003 Jul. 15; 31(14):e73.). The geometric mean of a minimum of three housekeeping genes was used for normalization (Gapdh, ActB, GusB and Rps9 for example).
Cells from the U2OS (HTB-96) line were obtained, tested and identified. The cells were cultured in T-75 flasks, in Dulbecco's modified Eagle medium (DMEM) supplemented with 10% foetal bovine serum (FBS) and 1% penicillin-streptomycin (P/S) at 37° C. in a humidified atmosphere at 5% CO2. The cells were subcultured every 2 to 4 days in a 1:2 to 1:6 ratio, in accordance with the ATCC recommendations. The cells were counted using a haemocytometer, and their viability in a culture was maintained at above 95%, measured with a Presto Blue exclusion assay according to the manufacturer's specifications. Cells were transfected with siRNAs (typically at 50 nM concentrations, sequences as previously listed), the CRE::Luc (pGL4.29[luc2P/CRE/Hygro] Vector, encoding Luc2P […] under the control of a strong cAMP response element (CRE) promoter containing 3 CRE elements within its sequence; Promega) reporter vector or cAMP-GLOSensor plasmid (Promega) as per manufacturer's instructions using either Lipofectamine RNAimax (Invitrogen) or Lipofectamine3000 (Invitrogen).
On the technique in general: In qPCR the cycle at which signal appears reflects the starting amount.

Assay [6] has as its system C57Bl/6 mice. Nature of the assay: Re-entrainment in a jet-lag protocol. In kind it is in vivo. The method, then: as §1, with “For jet-lag studies, mice were maintained on running wheels in light tight chambers on a 12:12 LD cycle (400 lux from white LED lamps) and injected with drugs as above at ZT6 and the LD cycle was shifted 6 hours in advance. The onset of activity on each day was used to measure phase relative to the LD cycle.” left out
Re-entrainment: C57B/6 male mice (80 days or older) were maintained on running wheels in light tight chambers on a 12:12 LD cycle (100 lux from white LED lamps) and injected with drugs as above at ZT6. […] Onset of activity on each day was used to measure phase relative to the LD cycle, data analysed on Clocklab.

The structures appear in SMILES notation. “Also recorded” adds a separate entry of the source.

Consider `Nc1nc(-c2ccccc2)c2c(n1)-c1cc(OCCN3CCOCC3)ccc1C2=O` [JNJ40255293, 2-amino-8-[2-(4-morpholinyl)ethoxy]-4-phenyl-5H-indeno[1,2-d]pyrimidin-5-one], for which the “phase of SCN electrical activity” value in assay [1] is “marked phase shift”. Moreover, in assay [2], the “CREB-driven transcription (CRE::Luc reporter)” value is on record as “does not increase signals from the CRE::Luc reporter”. Also, the “phase shift of circadian activity” value in assay [3] (5 mg/kg intraperitoneal, 6 h after the onset of light (ZT6), then constant dark) is reported as “induced a phase advance”; in assay [3] (5 mg/kg, administered at CT16, constant dark), “resulted in a phase delay”. The “phase shifts compared with other agents (FIG. 9A)” value in assay [3] (difference between onset pre and post injection) is recorded as “causes the largest phase shifts”. Besides, the “Per1/2 expression within the SCN” value in assay [4] is listed as “reversed”. Moreover, the Per2 transcription result in assay [5] (4 h post-drug treatment) is reported as “significantly increased”. In assay [5] (U2OS cell cultures, 10 uM), the “Per2 mRNA” value is on record as “Robust increases”. The “Per2 mRNA levels” value in assay [5] (U2OS cells, 30 uM) is “elevated”. Besides, the “Per2 mRNA levels / expression” value in assay [5] (U2OS cells, qPCR, concentration not given) was “induce the expression of Per1 and Per2”. The “re-entrainment (advance of activity onset)” value in assay [6] (5 mg/kg single intraperitoneal injection at ZT6, LD cycle advanced 6 h) is reported as “shifted rapidly; also recorded: advanced entrainment more potently than Tasimelteon, KW6002 (specific A2A antagonist) or KW3902 (specific A1 antagonist)”. The “re-entrainment, dose response” value in assay [6] (jet-lag protocol, LD cycle advanced 6 h) is listed as “dose responsively enhanced re-entrainment”.

These data come from patent publication US11931374B2, “Adenosine receptor modulators for the treatment of circadian rhythm disorders” (OXFORD UNIVERSITY INNOVATION LIMITED, priority 2016, dated 2024).
